Measurements from patent US20120065205A1, “PYRAZINE CARBOXAMIDE OREXIN RECEPTOR ANTAGONISTS” (priority 2009, published 2012).

target: T1, OX2R (Homo sapiens, UniProt O43614); assay: radioligand binding assay, membranes from CHO cells expressing OX2 receptor; details: CHO cell membranes
T1 construct: expressed in transfected cells; host or cells: CHO cells (membranes)
T1 sequence (O43614 1-444): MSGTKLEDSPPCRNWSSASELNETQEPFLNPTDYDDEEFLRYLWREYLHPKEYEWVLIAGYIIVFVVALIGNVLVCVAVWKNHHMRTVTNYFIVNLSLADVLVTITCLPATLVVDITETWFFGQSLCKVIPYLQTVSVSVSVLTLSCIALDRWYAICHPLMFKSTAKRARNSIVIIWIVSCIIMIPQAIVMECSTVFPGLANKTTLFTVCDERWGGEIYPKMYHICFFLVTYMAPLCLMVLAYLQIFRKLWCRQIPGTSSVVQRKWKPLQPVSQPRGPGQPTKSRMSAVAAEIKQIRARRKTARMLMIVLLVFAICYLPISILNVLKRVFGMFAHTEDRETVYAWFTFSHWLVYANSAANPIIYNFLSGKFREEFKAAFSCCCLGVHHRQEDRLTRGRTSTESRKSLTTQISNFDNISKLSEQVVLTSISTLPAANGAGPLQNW
Procedure: The utility of the compounds in accordance with the present invention as orexin receptor OX1R and/or OX2R antagonists may be readily determined without undue experimentation by methodology well known in the art, including the “FLIPR Ca^2+ Flux Assay” (Okumura et al., Biochem. Biophys. Res. Comm. 280:976-981, 2001). In a typical experiment the OX1 and OX2 receptor antagonistic activity of the compounds of the present invention was determined in accordance with the following experimental method. For intracellular calcium measurements, Chinese hamster ovary (CHO) cells expressing the rat orexin-1 receptor or the human orexin-2 receptor, are grown in Iscove's modified DMEM containing 2 mM L-glutamine, […], 1% hypoxanthine-thymidine supplement, 100 U/ml penicillin, 100 ug/ml streptomycin and 10% heat-inactivated fetal calf serum (FCS). The cells are seeded at 20,000 cells/well into Becton-Dickinson black 384-well clear bottom sterile plates coated with poly-D-lysine. All reagents were from GIBCO-Invitrogen Corp. The seeded plates are incubated overnight at 37° C. and 5% CO2. […] Within the Fluorescent Imaging Plate Reader (FLIPR, Molecular Devices), test compounds are added to the plate in a volume of 25 ul, incubated for 5 min and finally 25 ul of agonist is added. Fluorescence is measured for each well at 1 second intervals for 5 minutes and the height of each fluorescence peak is compared to the height of the fluorescence peak induced by 70 pM Ala-6,12 orexin-A with buffer in place of antagonist. […] Alternatively, compound potency can be assessed by a radioligand binding assay (described in Bergman et. al. Bioorg. Med. Chem. Lett. 2008, 18, 1425-1430) in which the inhibition constant (Ki) is determined in membranes prepared from CHO cells expressing either the OX1 or OX2 receptor. The intrinsic orexin receptor antagonist activity of a compound which may be used in the present invention may be determined by these assays.

| Ki [nM] | SMILES |
| --- | --- |
| 1.4 | COc1ccc(CNC(=O)c2nc(-c3cncc(C)c3)cnc2-c2ccccc2)nc1OC [1-5, N-[(5,6-dimethoxypyridin-2-yl)methyl]-6-(5-methylpyridin-3-yl)-3-phenylpyrazine-2-carboxamide] |
| 3.9 | COc1ccc(CNC(=O)c2nc(-c3cncc(Cl)c3)cnc2-c2ccccc2F)nc1OC [1-9, 6-(5-chloropyridin-3-yl)-N-[(5,6-dimethoxypyridin-2-yl)methyl]-3-(2-fluorophenyl)pyrazine-2-carboxamide] |
| 33 | COc1ccc(CNC(=O)c2nc(-c3cc(C)cc(C)c3)cnc2N2CCOCC2)nc1OC [2-5, N-[(5,6-dimethoxypyridin-2-yl)methyl]-6-(3,5-dimethylphenyl)-3-(morpholin-4-yl)pyrazine-2-carboxamide] |
